Data reported in ChEMBL document CHEMBL4813953, “Kinetics-Driven Drug Design Strategy for Next-Generation Acetylcholinesterase Inhibitors to Clinical Candidate” (J Med Chem, 2021).
Calls of active or inactive are those of the source. The rule behind the calls is not given here.

Assays:
[1] = target: Butyrylcholinesterase (Rattus norvegicus, UniProt Q9JKC1); experiment: Inhibition of rat serum BuChE using S-butyrylthiocholine iodide as substrate incubated for 8 mins by Ellman's method; format: cell-free
Sequence of Butyrylcholinesterase (Q9JKC1 whole entry): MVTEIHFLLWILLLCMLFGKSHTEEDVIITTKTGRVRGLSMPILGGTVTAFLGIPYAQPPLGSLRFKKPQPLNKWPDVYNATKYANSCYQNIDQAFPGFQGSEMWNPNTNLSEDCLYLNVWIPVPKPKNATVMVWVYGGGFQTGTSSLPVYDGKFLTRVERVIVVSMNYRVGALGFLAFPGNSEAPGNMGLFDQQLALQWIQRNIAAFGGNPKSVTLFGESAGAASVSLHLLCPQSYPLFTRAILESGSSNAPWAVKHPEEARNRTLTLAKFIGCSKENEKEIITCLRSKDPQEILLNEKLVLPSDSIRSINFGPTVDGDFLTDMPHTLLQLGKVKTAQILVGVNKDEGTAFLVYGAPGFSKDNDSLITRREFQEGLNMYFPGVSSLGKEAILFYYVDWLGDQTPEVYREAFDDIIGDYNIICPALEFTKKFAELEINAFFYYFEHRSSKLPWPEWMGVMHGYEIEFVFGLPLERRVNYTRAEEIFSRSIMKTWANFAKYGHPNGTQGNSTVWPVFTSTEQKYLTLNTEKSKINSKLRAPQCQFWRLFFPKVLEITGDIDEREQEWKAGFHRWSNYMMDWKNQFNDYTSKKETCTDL

[2] = tested on: Mus musculus; experiment: Improvement in learning and spatial memory in APP/PS1 double mutant-transgenic mouse model assessed as increase in time spent in target quadrant at 0.5 to 1 mg/kg, IG QD by Morris water maze test; format: functional, organism-based; settings: dose 0.5-1 mg/kg
[3] = target: T1, Cytochrome P450 1A2 (Homo sapiens, UniProt P05177); experiment: Inhibition of CYP1A2 in human hepatocytes; format: ADME, cell-based, Hepatocyte
T1 sequence (P05177 whole entry): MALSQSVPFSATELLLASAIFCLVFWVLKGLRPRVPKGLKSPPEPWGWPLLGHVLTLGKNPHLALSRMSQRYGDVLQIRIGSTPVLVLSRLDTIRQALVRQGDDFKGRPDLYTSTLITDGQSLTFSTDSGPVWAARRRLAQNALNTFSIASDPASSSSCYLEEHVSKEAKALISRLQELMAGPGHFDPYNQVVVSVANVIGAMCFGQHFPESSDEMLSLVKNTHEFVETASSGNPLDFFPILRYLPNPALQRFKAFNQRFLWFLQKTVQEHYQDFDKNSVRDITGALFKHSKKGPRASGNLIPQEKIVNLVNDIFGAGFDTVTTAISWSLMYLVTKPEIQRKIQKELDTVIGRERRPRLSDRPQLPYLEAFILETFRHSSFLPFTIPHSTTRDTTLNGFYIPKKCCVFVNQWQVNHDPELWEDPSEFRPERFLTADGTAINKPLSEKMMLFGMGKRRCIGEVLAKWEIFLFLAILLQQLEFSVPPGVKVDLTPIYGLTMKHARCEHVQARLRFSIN

[4] = species: Rattus norvegicus; experiment: Selectivity index, ratio of IC50 for rat serum BuChE using S-butyrylthiocholine iodide as substrate to IC50 for rat cortex homogenate acetylcholinesterase using acetylthiocholine iodide as substrate
[5] = Tmax in Sprague-Dawley rat plasma at 10 mg/kg, po; format: ADME, organism-based
[6] = MRT in Sprague-Dawley rat brain at 10 mg/kg, po; format: ADME, organism-based
[7] = Cardiotoxicity in Beagle dog assessed as effect on QT interval at 0.1 to 1 mg/kg; format: toxicity, organism-based, Canis lupus familiaris; settings: in vivo, dose 0.1-1 mg/kg
[8] = Half life in Beagle dog at 0.25 mg/kg, po; format: ADME, organism-based, Canis lupus familiaris; settings: in vivo
[9] = Cmax in human plasma at 12 mg, po; format: ADME, cell-free; set-up: route oral, dose 12 mg
[10] = AUC (0 to infinity) in Beagle dog at 0.25 mg/kg, po; format: ADME, organism-based, Canis lupus familiaris; set-up: route oral, time infinity, dose 0.25 mg/kg; settings: in vivo
[11] = Terminal half life in human plasma at 1 mg, po; format: ADME, cell-free; settings: read-out: beta t1/2 (converted)
[12] = Tmax in Beagle dog at 0.25 mg/kg, po; format: ADME, organism-based, Canis lupus familiaris; settings: in vivo
[13] = Oral bioavailability in Sprague-Dawley rat at 0.5 mg/kg; format: ADME, organism-based; settings: in vivo
[14] = MRT in Sprague-Dawley rat plasma at 10 mg/kg, po; format: ADME, organism-based
[15] = Cmax in human plasma at 4 mg, po; format: ADME, cell-free; set-up: route oral, dose 4 mg
[16] = tested on: Mus musculus; experiment: Cognitive enhancing effect in ig dosed APP/PS1 double mutant-transgenic mouse model assessed as increase in spontaneous alteration administered once daily by Y-maze test; format: functional, organism-based; settings: dose 0.25-1 mg/kg
[17] = AUC(0 to infinity) in Sprague-Dawley rat brain at 10 mg/kg, po; format: ADME, organism-based; set-up: route oral, time infinity, dose 10 mg/kg
[18] = Clearance in Sprague-Dawley rat at 0.5 mg/kg, iv; format: ADME, organism-based; settings: in vivo
[19] = Cardiotoxicity in Beagle dog assessed as effect on […] at 0.1 to 1 mg/kg; format: toxicity, organism-based, Canis lupus familiaris; settings: in vivo, dose 0.1-1 mg/kg
[20] = Tmax in Sprague-Dawley rat brain at 10 mg/kg, po; format: ADME, organism-based
[21] = Tmax in human plasma at 8 mg, po; format: ADME, cell-free
[22] = AUC (0 to t) in Sprague-Dawley rat plasma at 10 mg/kg, po; format: ADME, organism-based; set-up: dose 10 mg/kg
[23] = Terminal half life in human plasma at 12 mg, po; format: ADME, cell-free; settings: read-out: beta t1/2 (converted)
[24] = target: Voltage-gated inwardly rectifying potassium channel KCNH2 (Homo sapiens, UniProt Q12809); experiment: Inhibition of human ERG
Sequence of Voltage-gated inwardly rectifying potassium channel KCNH2 (Q12809 whole entry): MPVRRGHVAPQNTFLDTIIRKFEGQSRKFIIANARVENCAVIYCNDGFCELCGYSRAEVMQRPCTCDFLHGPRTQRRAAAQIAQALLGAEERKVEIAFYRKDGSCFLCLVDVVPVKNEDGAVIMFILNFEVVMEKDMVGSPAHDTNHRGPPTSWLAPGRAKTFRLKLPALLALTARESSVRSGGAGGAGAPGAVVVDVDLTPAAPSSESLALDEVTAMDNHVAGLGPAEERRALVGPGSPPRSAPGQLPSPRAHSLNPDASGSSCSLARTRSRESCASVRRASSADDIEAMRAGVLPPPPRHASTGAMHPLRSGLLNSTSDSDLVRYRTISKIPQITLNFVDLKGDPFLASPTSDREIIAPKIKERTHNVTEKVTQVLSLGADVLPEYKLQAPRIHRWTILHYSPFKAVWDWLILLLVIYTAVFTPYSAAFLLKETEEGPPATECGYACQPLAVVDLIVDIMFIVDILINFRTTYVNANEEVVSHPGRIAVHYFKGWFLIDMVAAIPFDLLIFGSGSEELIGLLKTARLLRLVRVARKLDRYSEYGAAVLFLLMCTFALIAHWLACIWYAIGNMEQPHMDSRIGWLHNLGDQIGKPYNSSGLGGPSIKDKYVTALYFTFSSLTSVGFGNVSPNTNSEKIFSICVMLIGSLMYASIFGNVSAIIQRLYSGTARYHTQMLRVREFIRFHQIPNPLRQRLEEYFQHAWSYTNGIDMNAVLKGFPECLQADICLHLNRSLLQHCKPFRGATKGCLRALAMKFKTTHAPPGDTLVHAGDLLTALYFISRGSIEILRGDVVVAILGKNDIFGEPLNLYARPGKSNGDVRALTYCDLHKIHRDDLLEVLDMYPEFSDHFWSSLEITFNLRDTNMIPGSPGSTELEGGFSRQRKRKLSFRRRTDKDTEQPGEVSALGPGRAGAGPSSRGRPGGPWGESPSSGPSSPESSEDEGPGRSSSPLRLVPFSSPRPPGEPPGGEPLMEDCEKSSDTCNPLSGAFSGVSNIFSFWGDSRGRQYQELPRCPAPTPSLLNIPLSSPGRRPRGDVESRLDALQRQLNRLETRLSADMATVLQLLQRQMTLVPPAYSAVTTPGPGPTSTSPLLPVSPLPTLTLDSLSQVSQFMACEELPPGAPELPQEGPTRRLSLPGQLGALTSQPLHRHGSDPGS

[25] = Ratio of drug concentration in brain to plasma of Sprague-Dawley rat at 10 mg/kg, po; format: ADME, organism-based; settings: read-out: BPR
[26] = Toxicity in Sprague-Dawley rat assessed as animal death at upto 30 mg/kg, po for 4 weeks; format: organism-based; settings: in vivo, 672 h
[27] = Clearance in Beagle dog at 0.25 mg/kg, iv; format: ADME, organism-based, Canis lupus familiaris; settings: in vivo
[28] = Genotoxicity in ICR mouse at 7.5 to 30 mg/kg, po administered once a day for 2 consecutive days by micronucleus test; format: toxicity, organism-based; settings: in vivo, 48 h, dose 7.5-30 mg/kg, time 2 day
[29] = Cardiotoxicity in Beagle dog assessed as effect on QRS interval at 0.1 to 1 mg/kg; format: toxicity, organism-based, Canis lupus familiaris; settings: in vivo, dose 0.1-1 mg/kg
[30] = AUC (0 to infinity) in Sprague-Dawley rat at 0.5 mg/kg, po; format: ADME, organism-based; set-up: time infinity, route oral, dose 0.5 mg/kg; settings: in vivo
[31] = Terminal half life in human plasma at 4 mg, po; format: ADME, cell-free; settings: read-out: beta t1/2 (converted)
[32] = Half life in Sprague-Dawley rat brain at 10 mg/kg, po; format: ADME, organism-based
[33] = Cmax in Sprague-Dawley rat brain at 10 mg/kg, po; format: ADME, organism-based; set-up: route oral, dose 10 mg/kg
[34] = Tmax in human plasma at 12 mg, po; format: ADME, cell-free
[35] = Toxicity in Beagle dog assessed as effect on blood pressure at 0.1 to 1 mg/kg; format: organism-based, Canis lupus familiaris; settings: in vivo, dose 0.1-1 mg/kg
[36] = target: Cytochrome P450 2C9 (Homo sapiens, UniProt P11712); experiment: Inhibition of CYP2C9 in human hepatocytes; format: ADME, cell-based, Hepatocyte
Sequence of Cytochrome P450 2C9 (P11712 whole entry): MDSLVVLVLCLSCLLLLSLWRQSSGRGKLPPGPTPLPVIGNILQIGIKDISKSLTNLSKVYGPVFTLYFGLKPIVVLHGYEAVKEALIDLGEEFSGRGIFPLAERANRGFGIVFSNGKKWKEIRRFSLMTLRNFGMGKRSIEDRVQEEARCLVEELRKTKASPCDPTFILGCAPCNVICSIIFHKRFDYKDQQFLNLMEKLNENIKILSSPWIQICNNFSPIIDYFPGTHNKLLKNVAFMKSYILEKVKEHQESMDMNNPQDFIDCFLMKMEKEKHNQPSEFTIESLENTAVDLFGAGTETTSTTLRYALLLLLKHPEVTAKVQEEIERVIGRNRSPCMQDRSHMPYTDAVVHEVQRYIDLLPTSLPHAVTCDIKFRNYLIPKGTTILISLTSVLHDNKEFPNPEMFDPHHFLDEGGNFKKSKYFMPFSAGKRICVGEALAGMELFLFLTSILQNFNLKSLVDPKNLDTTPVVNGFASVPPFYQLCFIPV

[37] = AUC (0 to infinity) in Sprague-Dawley rat at 0.5 mg/kg, iv; format: ADME, organism-based; set-up: time infinity, route intravenous, dose 0.5 mg/kg; settings: in vivo
[38] = Half life in Sprague-Dawley rat plasma at 10 mg/kg, po; format: ADME, organism-based
[39] = Tmax in human plasma at 4 mg, po; format: ADME, cell-free
[40] = Mutagenecity against CHL cells; format: ADME, cell-based, Cricetulus griseus; settings: chinese hamster
[41] = target: Cytochrome P450 3A4 (Homo sapiens, UniProt P08684); experiment: Inhibition of CYP3A4 in human hepatocytes; format: ADME, cell-based, Hepatocyte
Sequence of Cytochrome P450 3A4 (P08684 whole entry): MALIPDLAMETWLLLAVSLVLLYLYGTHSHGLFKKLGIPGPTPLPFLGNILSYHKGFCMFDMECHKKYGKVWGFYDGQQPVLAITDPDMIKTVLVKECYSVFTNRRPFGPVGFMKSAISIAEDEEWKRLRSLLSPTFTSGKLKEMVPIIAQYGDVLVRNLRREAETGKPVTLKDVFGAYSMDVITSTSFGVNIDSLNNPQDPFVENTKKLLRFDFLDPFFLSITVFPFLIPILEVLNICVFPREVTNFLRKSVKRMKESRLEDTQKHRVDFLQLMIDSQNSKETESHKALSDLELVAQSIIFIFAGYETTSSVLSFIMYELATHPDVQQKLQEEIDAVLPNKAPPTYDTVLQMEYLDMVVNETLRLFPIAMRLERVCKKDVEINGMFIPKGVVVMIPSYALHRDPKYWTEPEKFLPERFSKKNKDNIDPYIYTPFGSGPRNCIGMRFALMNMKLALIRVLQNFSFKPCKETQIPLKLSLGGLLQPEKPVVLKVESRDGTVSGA

[42] = AUC (0 to infinity) in Beagle dog at 0.25 mg/kg, iv; format: ADME, organism-based, Canis lupus familiaris; set-up: route intravenous, time infinity, dose 0.25 mg/kg; settings: in vivo
[43] = Tmax in Sprague-Dawley rat at 0.5 mg/kg, po; format: ADME, organism-based; settings: in vivo
[44] = Efflux ratio of apparent permeability across basolateral to apical side over apical to basolateral side in human Caco-2 cells; format: ADME, cell-based
[45] = Selectivity ratio of IC50 for human ERG to IC50 for rat cortex homogenate acetylcholinesterase
[46] = Volume of distribution at steady state in Beagle dog at 0.5 mg/kg, po or iv; format: ADME, organism-based, Canis lupus familiaris; settings: in vivo, read-out: Vdss
[47] = MRT (0 to infinity) in Beagle dog at 0.25 mg/kg, iv; format: ADME, organism-based, Canis lupus familiaris; settings: in vivo
[48] = Protein binding in rat plasma; format: ADME, cell-free; settings: read-out: PPB (converted)

COc1cc2c(cc1OC)C(=O)C(CC1(F)CCN(Cc3ccccc3F)CC1)C2 (stereo not drawn)
IC50 [1]: 31.7 µM
Activity [2]: Active
IC50 [3]: > 30 µM
Ratio IC50 [4]: 36900
Tmax [5]: 0.5 h
MRT [6]: 8.9 h
Activity [7]: Non-Toxic
half-life [8]: 23.2 h
Cmax [9]: 23.5 ng/mL
AUC(0-inf) [10]: 157 ng·h/mL
half-life [11]: 14.2 h
Tmax [12]: 0.92 h
bioavailability [13]: 45.3%
MRT [14]: 6.81 h
Cmax [15]: 8.61 ng/mL
Activity [16]: Active
AUC(0-inf) [17]: 6430 ng·h/mL
clearance [18]: 23.7 mL/min/kg
Activity [19]: Non-Toxic
Tmax [20]: 0.5 h
Tmax [21]: 1.13 h
AUC(0-t) [22]: 1080 ng·h/mL
half-life [23]: 32.1 h
IC50 [24]: 9.23 µM
Kp [25]: 5.4
Activity [26]: Non-Toxic
clearance [27]: 17.5 mL/min/kg
Activity [28]: Non-Toxic
Activity [29]: Non-Toxic
AUC(0-inf) [30]: 179 ng·h/mL
half-life [31]: 30.8 h
half-life [32]: 6.99 h
Cmax [33]: 831 ng/mL
Tmax [34]: 1.5 h
Activity [35]: Non-Toxic
IC50 [36]: 4.77 µM
AUC(0-inf) [37]: 395 ng·h/mL
half-life [38]: 5.57 h
Tmax [39]: 0.75 h
Activity [40]: Non-Toxic
IC50 [41]: > 30 µM
AUC(0-inf) [42]: 256 ng·h/mL
Tmax [43]: 0.63 h
efflux ratio [44]: 0.67
Ratio IC50 [45]: 10700
Vd [46]: 23.2 L/kg
MRT inf [47]: 23.6 h
fraction unbound [48]: 0.031
